Data set [1] has as its target T1, Thyrotropin releasing hormone degrading enzyme (Sus scrofa) (UniProt A0A287AP33). Description: Substrate activity at pig brain TRH-DE assessed as rate of hydrolysis at 1 mM incubated for 18 hrs by HPLC analysis.
The target in data set [2] is T1, Thyrotropin releasing hormone degrading enzyme (Sus scrofa). Description: Substrate activity at pig brain TRH-DE assessed as Vmax to Km ratio.
Data set [3] shares this target. As to the kind of experiment: Inhibition of pig brain TRH-DE at 1 mM using Glp-His-ProAMC as substrate by DPP-4-based continuous fluorometric method.
Substrate in data set [4]: Cc1cc(=O)oc2cc(NC(=O)[C@@H]3CCCN3C(=O)[C@H](Cc3cnc[nH]3)NC(=O)[C@@H]3CCC(=O)N3)ccc12
As to the kind of experiment: (§1) Substrate activity at pig brain TRH-DE assessed as Vmax after 18 hrs by HPLC analysis. Particulars: Sus scrofa.

Substrate in data set [5]: NC(=O)[C@@H]1CCCN1C(=O)[C@H](Cc1c[nH]cn1)NC(=O)[C@@H]1CCC(=O)N1
The description is as §1. Particulars: Sus scrofa.

Substrate in data set [6]: NC(=O)[C@@H]1CCCN1C(=O)[C@H](Cc1ccc(O)cc1)NC(=O)[C@@H]1CCC(=O)N1
The data set is described as §1. As to conditions: Sus scrofa.

Substrate in data set [7]: NC(=O)[C@@H]1CCCN1C(=O)[C@H](Cc1ccccc1)NC(=O)[C@@H]1CCC(=O)N1
The data set is described as §1. As to conditions: Sus scrofa.

Substrate in data set [8]: NC(=O)[C@@H]1CCCN1C(=O)[C@H](Cc1cccs1)NC(=O)[C@@H]1CCC(=O)N1
The description is as §1. Particulars: Sus scrofa.

Substrate in data set [9]: O=C1CC[C@@H](C(=O)N[C@@H](Cc2cnc[nH]2)C(=O)N2CCC[C@H]2C(=O)O)N1
Described as §1. As to conditions: Sus scrofa.

Substrate in data set [10]: Cc1cc(=O)oc2cc(NC(=O)[C@@H]3CCCN3C(=O)[C@H](Cc3cnc[nH]3)NC(=O)[C@@H]3CCC(=O)N3)ccc12
As to the kind of experiment: (§2) Substrate activity at pig brain TRH-DE assessed as Km by discontinuous fluorometric method. As to conditions: Sus scrofa.

Substrate in data set [11]: NC(=O)[C@@H]1CCCN1C(=O)[C@H](Cc1c[nH]cn1)NC(=O)[C@@H]1CCC(=O)N1
The data set is described as §2. As to conditions: Sus scrofa.

Substrate in data set [12]: NC(=O)[C@@H]1CCCN1C(=O)[C@H](Cc1ccc(O)cc1)NC(=O)[C@@H]1CCC(=O)N1
Described as §2. As to conditions: Sus scrofa.

Substrate in data set [13]: NC(=O)[C@@H]1CCCN1C(=O)[C@H](Cc1ccccc1)NC(=O)[C@@H]1CCC(=O)N1
Described as §2. As to conditions: Sus scrofa.

Substrate in data set [14]: NC(=O)[C@@H]1CCCN1C(=O)[C@H](Cc1cccs1)NC(=O)[C@@H]1CCC(=O)N1
The data set is described as §2. Particulars: Sus scrofa.

Substrate in data set [15]: O=C1CC[C@@H](C(=O)N[C@@H](Cc2cnc[nH]2)C(=O)N2CCC[C@H]2C(=O)O)N1
The data set is described as §2. Particulars: Sus scrofa.

Non-standard residues stand in square brackets, D forms with d. Residues, ends and D or L forms follow the SMILES beside them. hPhe = N[C@@H](CCc1ccccc1)C(=O)O; 2Thi = N[C@@H](Cc1cccs1)C(=O)O; pGlu = O=C1CC[C@@H](C(=O)O)N1; Phg = N[C@H](C(=O)O)c1ccccc1; Pip = O=C(O)[C@@H]1CCCCN1; Nva = CCC[C@H](N)C(=O)O

Broadly, the inhibition is how much of the control response was suppressed. A higher inhibition goes with strong suppression. A word on the Km: it is the concentration of substrate that gives half-maximal velocity.

With `CC(C)C[C@H](NC(=O)[C@@H]1CCC(=O)N1)C(=O)N1CCC[C@H]1C(N)=O` ([pGlu]-Leu-Pro-NH2), in [1], the Activity was found to be 0.14 U/mg.
Take `NCCCC[C@H](NC(=O)[C@@H]1CCC(=O)N1)C(=O)N1CCC[C@H]1C(N)=O` ([pGlu]-Lys-Pro-NH2): the Activity in data set [1] is 0.46 U/mg.
Regarding `CSCC[C@H](NC(=O)[C@@H]1CCC(=O)N1)C(=O)N1CCC[C@H]1C(N)=O` ([pGlu]-Met-Pro-NH2), the Activity in [1] was 0.21 U/mg.
Consider `NC(=O)[C@@H]1CCCN1C(=O)[C@H](Cc1ccccc1)NC(=O)[C@@H]1CCC(=O)N1` ([pGlu]-Phe-Pro-NH2), for which the Activity in data set [1] came to 1.56 U/mg. For the same molecule, the Vmax/Km in data set [2] stood at 0.03 U/mg/µM.
In data set [3], `NC(=O)[C@@H]1CCCN1C(=O)[C@@H]1CCCN1C(=O)[C@@H]1CCC(=O)N1` ([pGlu]-Pro-Pro-NH2) came in with an inhibition of 3%.
As to `NC(=O)[C@@H]1CCCN1C(=O)[C@H](CO)NC(=O)[C@@H]1CCC(=O)N1` ([pGlu]-Ser-Pro-NH2), the Activity in [1] was determined as 0.05 U/mg.
Still for that read-out and setting: with `C[C@@H](O)[C@H](NC(=O)[C@@H]1CCC(=O)N1)C(=O)N1CCC[C@H]1C(N)=O` ([pGlu]-Thr-Pro-NH2) the figure was 0.14 U/mg.
Turning to `NC(=O)[C@@H]1CCCN1C(=O)[C@H](Cc1c[nH]c2ccccc12)NC(=O)[C@@H]1CCC(=O)N1` ([pGlu]-Trp-Pro-NH2), the inhibition in data set [3] amounted to 71%.
With `NC(=O)[C@@H]1CCCN1C(=O)[C@H](Cc1ccc(O)cc1)NC(=O)[C@@H]1CCC(=O)N1` ([pGlu]-Tyr-Pro-NH2), the Activity in data set [1] was 0.66 U/mg. Besides, in data set [2], the Vmax/Km is 0.05 U/mg/µM.
For the molecule `CC(C)[C@H](NC(=O)[C@@H]1CCC(=O)N1)C(=O)N1CCC[C@H]1C(N)=O` ([pGlu]-Val-Pro-NH2), the Activity in data set [1] came to 0.05 U/mg.
With `NC(=O)[C@@H]1CCCN1C(=O)[C@H](Cc1cccs1)NC(=O)[C@@H]1CCC(=O)N1` ([pGlu]-[2Thi]-Pro-NH2), the Activity in [1] was found to be 2.12 U/mg. Also, the Vmax/Km in data set [2] came to 0.06 U/mg/µM.
As to `CCC[C@H](NC(=O)[C@@H]1CCC(=O)N1)C(=O)N1CCC[C@H]1C(N)=O` ([pGlu]-[Nva]-Pro-NH2), the Activity in data set [1] stood at 0.04 U/mg.
Molecule `NC(=O)[C@@H]1CCCN1C(=O)[C@@H](NC(=O)[C@@H]1CCC(=O)N1)c1ccccc1` ([pGlu]-[Phg]-Pro-NH2) had an inhibition in data set [3] of 57%.
On to `NC(=O)[C@@H]1CCCN1C(=O)[C@@H]1CCCCN1C(=O)[C@@H]1CCC(=O)N1` ([pGlu]-[Pip]-Pro-NH2), for which the inhibition in data set [3] is 40%.
On to `NC(=O)C[C@@H](NC(=O)[C@@H]1CCC(=O)N1)C(=O)N1CCC[C@H]1C(N)=O` ([pGlu]-[dN]-Pro-NH2), for which the inhibition in [3] came to 2%.
Take `NC(=O)[C@@H]1CCCN1C(=O)[C@H](CCc1ccccc1)NC(=O)[C@@H]1CCC(=O)N1` ([pGlu]-[hPhe]-Pro-NH2): the Activity in [1] stood at 0.05 U/mg.

B1: Thyrotropin releasing hormone degrading enzyme (Sus scrofa), A0A287AP33 (protein)
chain: MALDGERGEQEEEKKKKKKKKKRKKKKEEEGAKKSSSPFVATMGENDAALRAGGRGLSDPWADSVGVRPRTTERHITVHKRLVLAFAVSIVALLAVTMLAVLLSLRFDECGASIPPGADGGPAGFPARGGNESLPGSSRRDHHAGGDSSQPGAGREDTPETPSAQPPSEEEQEQWQPWTQLRLSGHLKPLHYNLMLTAFMENFTFSGEVNVEIACRNATRYVVLHASRVAVEKVQVAEDRVAGAVPVAGFFLYPQTQVLVVVLNRTLDAQRNYNLKIIYNALIENELLGFFRSSYVLHGERRFLGVTQFSPTHARKAFPCFDEPIYKATFKISIKHQATYLSLSNMPVETSVFEEDGWVTDHFSQTPLMSTYYLAWAICNFTYRETTTKSGVVVRLYARPDAIRRGSGDYALHITKRLIEFYEDYFKVPYSLPKLDLLAVPKHPYAAMENWGLSIFVEQRILLDPSVSSISYLLDVTMVIVHEICHQWFGDLVTPVWWEDVWLKEGFAHYFEFVGTDYLYPGWNMEKQRFLTDVLHEVMLLDGLASSHPVSQEVLRATDIDRVFDWIAYKKGAALIRMLANFMGHSVFQRGLQDYLTIHKYGNAARNDLWNTLSEALKRNGKYVNIQEVMDQWTLQMGYPVITIFGNTTAENRIIITQQHFIYDISAKAKPHELQNSSYLWQIPLTIVVGNRSHVSSEAIIWVSNKTEHHRITSLNKGSWLLGNINQTGYFRVNYDLRNWRLLIDQLIRNHEVLSVSNRAGLIDDAFSLARAGYLPQNIPLEIIRYLSEEKDFLPWHAASRALYPLDKLLDRMEKYNVFNEYILKQVATTYIKLGWPKNNFNGSLVQASYQHEELRREVIMLACSFGNKHCHQQASTLISDWISSNRNRIPLNVRDIVYCTGVSLLDEDVWEFIWMKFHSTTAISEKKILLEALTCSDDRNLLNRLLNLSLNSEVVLDQDAIDVIIHVARNPHGRDLAWKFFRDKWKILNTRYGEALFMNSKLISGVTEFLNTEGELKELKNFMKSYDGVAAASFSRAVETVEANVRWKMLYQDELFQWLGKALRH
Take B1: the Vmax in data set [4] was 0.11 U/mg; in data set [5], 2.63 U/mg; in data set [6], 0.67 U/mg; in data set [7] it was 1.64 U/mg; in data set [8], 2.19 U/mg; in [9] it was 4.43 U/mg. The Km was found to be 3.1 µM in data set [10]; 35 µM in data set [11]; 15 µM in data set [12]; 55 µM in [13]; 34 µM in data set [14]; 311 µM in data set [15].

Source of the values: ChEMBL document CHEMBL3880382, “TRH-like peptide derivatives as inhibitors of the TRH-degrading ectoenzyme” (2010).
